Test results published in article PMC9923772 (ACS chemical neuroscience, 2020).
Structures can show the parent of a compound that is named as a salt. Where two headings read alike, the source gives them in different places.

Assays:
[1] = target: T1, human MOR (Homo sapiens, UniProt P35372); assay: biochemical; assay type: binding
[2] = target: T2, human DOR (Homo sapiens, UniProt P41143); assay: biochemical; assay type: binding
[3] = target: T1, human MOR; assay: biochemical; details: for Emax: read-out: Efficacy (% Stimulation) MOR, Table 5; for Emax / Efficacy (% Stimulation) MOR: relative to DAMGO at 10 μM
[4] = target: T2, human DOR; assay: biochemical; details: for Potency EC50 DOR: [35S]GTPγS stimulation; for Potency EC50 DOR / Efficacy DOR, percent maximal stimulation / Efficacy (% Stimulation) DOR: DNS = does not stimulate; for Efficacy DOR, percent maximal stimulation: Table 3; for Efficacy DOR, percent maximal stimulation / Efficacy (% Stimulation) DOR: relative to DPDPE at 10 μM; for Emax: read-out: Efficacy DOR, percent maximal stimulation
[5] = target: T3, human KOR (Homo sapiens, UniProt P41145); assay: [35S]-GTPγS binding assay, CHO-KOR membranes; assay type: biochemical; details: for Efficacy KOR, percent maximal stimulation: Table 3; for Efficacy KOR, percent maximal stimulation / Efficacy (% Stimulation) KOR: relative to U69,593 at 10 μM; for Efficacy KOR, percent maximal stimulation / Efficacy (% Stimulation) KOR / Potency, EC50 KOR: DNS = does not stimulate; for Potency, EC50 KOR: [35S]GTPγS stimulation
[6] = target: T3, human KOR; assay type: binding

Work on CCCOc1ccc(CN2CCc3ccccc3C2)cc1CNC(=O)[C@@H](N)Cc1c(C)cc(O)cc1C.O=C(O)C(F)(F)F [G, (S)-1-((5-((3,4-Dihydroisoquinolin-2(1H)-yl)methyl)-2-propoxybenzyl)amino)-3-(4-hydroxy-2,6-dimethylphenyl)-1-oxopropan-2-aminium Trifluoroacetate] yielded a Ki [1] of 0.22 ± 0.04 nM, a Ki [2] of 1.4 ± 0.3 nM and an EC50 [3] of 2.6 ± 1.3 nM. For the same compound, the “Potency EC50 DOR” value ([4]; Table 2) was “DNS”, the “Efficacy DOR, percent maximal stimulation” value [4] was “DNS” and the “Efficacy KOR, percent maximal stimulation” value [5] was “DNS”.

With Cc1cc(O)cc(C)c1C[C@H](N)C(=O)NCC(=O)NCCN1CCc2ccccc2C1.O=C(O)C(F)(F)F [P, (S)-1-((2-((2-(3,4-Dihydroisoquinolin-2(1H)-yl)ethyl)amino)-2-oxoethyl)amino)-3-(4-hydroxy-2,6-dimethylphenyl)-1-oxopropan-2-aminium Trifluoroacetate] the Emax [3] was 86.6 ± 3.3%, the “Efficacy (% Stimulation) DOR” value ([4]; Table 5) was 36.5±1.2% and the “Efficacy (% Stimulation) KOR” value ([5]; Table 5) was “DNS”.

In the case of Cc1cc(O)cc(C)c1C[C@H](N)C(=O)N1CCN(CCN2CCc3ccccc3C2)CC1.O=C(O)C(F)(F)F [M, (S)-1-(4-(2-(3,4-Dihydroisoquinolin-2(1H)-yl)ethyl)piperazin-1-yl)-3-(4-hydroxy-2,6-dimethylphenyl)-1-oxopropan-2-aminium Trifluoroacetate], the Ki [1] is reported as 3.59 ± 0.4 nM, the Ki [2] is reported as 16.6 ± 4.9 nM and the EC50 [3] is reported as 56 ± 17 nM. For the same compound, the Emax [3] was 70 ± 16%, the “Potency EC50 DOR” value ([4]; Table 5) was “DNS” and the “Efficacy (% Stimulation) DOR” value ([4]; Table 5) was “DNS”. The “Efficacy (% Stimulation) KOR” value ([5]; Table 5) was “DNS”.

With CCCOc1ccc(CN2CCCCC2)cc1CNC(=O)[C@@H](N)Cc1c(C)cc(O)cc1C.O=C(O)C(F)(F)F [C, (S)-3-(4-Hydroxy-2,6-dimethylphenyl)-1-oxo-1-((5-(piperidin-1-ylmethyl)-2-propoxybenzyl)amino)propan-2-aminium Trifluoroacetate] the Emax [4] was 39.9 ± 6.5% and the “Efficacy KOR, percent maximal stimulation” value [5] was “DNS”.

With Cc1cc(O)cc(C)c1C[C@H](N)C(=O)NCc1cccc(CN2CCc3ccccc3C2)c1.O=C(O)C(F)(F)F [E, (S)-1-((3-((3,4-Dihydroisoquinolin-2(1H)-yl)methyl)benzyl)amino)-3-(4-hydroxy-2,6-dimethylphenyl)-1-oxopropan-2-aminium Trifluoroacetate] the Ki [1] was 0.23 ± 0.02 nM, the Ki [6] was 46.3 ± 9.7 nM and the EC50 [3] was 6.1 ± 3.1 nM. The Emax [3] was 126 ± 20%, the “Efficacy (% Stimulation) DOR” value ([4]; Table 5) was 57±6% and the Emax [4] was 57 ± 6%. For the same compound, the “Potency, EC50 KOR” value ([5]; Table 2) was “DNS”, the “Efficacy KOR, percent maximal stimulation” value [5] was “DNS” and the “Potency, EC50 KOR” value ([5]; Table 5) was “DNS”. The “Efficacy (% Stimulation) KOR” value ([5]; Table 5) was “DNS”.

Cc1cc(O)cc(C)c1C[C@H](N)C(=O)NCc1cc(CN2CCCCC2)ccc1OCC1CC1.O=C(O)C(F)(F)F [D, (S)-1-((2-(Cyclopropylmethoxy)-5-(piperidin-1-ylmethyl)benzyl)amino)-3-(4-hydroxy-2,6-dimethylphenyl)-1-oxopropan-2-aminium Trifluoroacetate] was tested, and the Emax [4] was 17.7 ± 4.4% and the “Efficacy KOR, percent maximal stimulation” value [5] was “DNS”.

With Cc1cc(O)cc(C)c1C[C@H](N)C(=O)N1CCC(CCN2CCc3ccccc3C2)CC1.O=C(O)C(F)(F)F [L, (S)-1-(4-(2-(3,4-Dihydroisoquinolin-2(1H)-yl)ethyl)piperidin-1-yl)-3-(4-hydroxy-2,6-dimethylphenyl)-1-oxopropan-2-aminium Trifluoroacetate] the Ki [1] was 1.64 ± 0.62 nM, the Ki [6] was 21 ± 5.9 nM and the EC50 [3] was 68 ± 19 nM. The Emax [3] was 73 ± 12%, the “Efficacy (% Stimulation) DOR” value ([4]; Table 5) was “DNS” and the “Potency, EC50 KOR” value ([5]; Table 5) was “DNS”. For the same compound, the “Efficacy (% Stimulation) KOR” value ([5]; Table 5) was “DNS”.

With Cc1cc(O)cc(C)c1C[C@H](N)C(=O)NCC(=O)N(C)CCN1CCc2ccccc2C1.O=C(O)C(F)(F)F [O, (S)-1-((2-((2-(3,4-Dihydroisoquinolin-2(1H)-yl)ethyl)(methyl)amino)-2-oxoethyl)amino)-3-(4-hydroxy-2,6-dimethylphenyl)-1-oxopropan-2-aminium Trifluoroacetate] the Emax [3] was 53 ± 17%, the “Efficacy (% Stimulation) DOR” value ([4]; Table 5) was “DNS” and the “Efficacy (% Stimulation) KOR” value ([5]; Table 5) was “DNS”.

Cc1cc(O)cc(C)c1C[C@H](N)C(=O)NCc1cc(CN2CCc3ccccc3C2)ccc1OCC1CC1.O=C(O)C(F)(F)F [H, (S)-1-((2-(Cyclopropylmethoxy)-5-((3,4-dihydroisoquinolin-2(1H)-yl)methyl)benzyl)amino)-3-(4-hydroxy-2,6-dimethylphenyl)-1-oxopropan-2-aminium Trifluoroacetate] showed a Ki [1] of 0.05 ± 0.01 nM, a Ki [2] of 3.6 ± 0.9 nM and a Ki [6] of 23.5 ± 3.6 nM. For the same compound, the EC50 [3] was 1.6 ± 0.5 nM, the “Potency EC50 DOR” value ([4]; Table 2) was “DNS” and the “Efficacy DOR, percent maximal stimulation” value [4] was “DNS”. For the same compound, the “Potency, EC50 KOR” value ([5]; Table 2) was “DNS” and the “Efficacy KOR, percent maximal stimulation” value [5] was “DNS”.

Compound Cc1cc(O)cc(C)c1C[C@H](N)C(=O)NCCN(C)CCN1CCc2ccccc2C1.O=C(O)C(F)(F)F [N, (S)-1-((2-((2-(3,4-Dihydroisoquinolin-2(1H)-yl)ethyl)(methyl)amino)ethyl)amino)-3-(4-hydroxy-2,6-dimethylphenyl)-1-oxopro-pan-2-aminium Trifluoroacetate] has a Ki ([1]; read-out: Binding Affinity, Ki MOR, Table 4, simple core compounds, mean ± SEM) of 1.7 ± 0.39 nM, a Ki ([2]; read-out: Binding Affinity, Ki DOR, Table 4, simple core compounds, mean ± SEM) of 77 ± 45 nM and a Ki ([6]; read-out: Binding Affinity, Ki KOR, Table 4, simple core compounds, mean ± SEM) of 8.5 ± 1.1 nM. The “Efficacy (% Stimulation) MOR” value ([3]; Table 5) was 80.0±9.5%, the EC50 ([3]; read-out: Potency, EC50 MOR, Table 5, [35S]GTPγS stimulation) was 24 ± 10 nM and the “Efficacy (% Stimulation) KOR” value ([5]; Table 5) was 43.0±2.5%.

In the case of COc1ccc(CN2CCCCC2)cc1CNC(=O)[C@@H](N)Cc1c(C)cc(O)cc1C.O=C(O)C(F)(F)F [B, (S)-3-(4-Hydroxy-2,6-dimethylphenyl)-1-((2-methoxy-5-(piperidin-1-ylmethyl)benzyl)amino)-1-oxopropan-2-aminium Trifluoroacetate], the Ki [6] is reported as 23.5 ± 7.3 nM, the Emax [4] is reported as 37.2 ± 6.2% and the “Potency, EC50 KOR” value ([5]; Table 2) is reported as “DNS”. The “Efficacy KOR, percent maximal stimulation” value [5] was “DNS”.

COc1ccc(CN2CCc3ccccc3C2)cc1CNC(=O)[C@@H](N)Cc1c(C)cc(O)cc1C [F, (S)-1-((5-((3,4-Dihydroisoquinolin-2(1H)-yl)methyl)-2-methoxybenzyl)amino)-3-(4-hydroxy-2,6-dimethylphenyl)-1-oxopropan-2-aminium Trifluoroacetate] gave a Ki [1] of 0.16 ± 0.05 nM, a Ki [2] of 3 ± 0.8 nM and a Ki [6] of 28.4 ± 3.1 nM. The EC50 [3] was 2.9 ± 0.5 nM, the EC50 [4] was 5 ± 0.9 nM and the Emax [4] was 29.8 ± 3.5%. For the same compound, the EC50 [5] was greater than 1000 nM and the Emax ([5]; read-out: Efficacy KOR, percent maximal stimulation) was greater than 15%.

In the case of Cc1cc(O)cc(C)c1C[C@H](N)C(=O)NCCOCCN1CCc2ccccc2C1.O=C(O)C(F)(F)F [J, (S)-1-((2-(2-(3,4-Dihydroisoquinolin-2(1H)-yl)ethoxy)ethyl)amino)-3-(4-hydroxy-2,6-dimethylphenyl)-1-oxopropan-2-aminium Trifluoroacetate], the “Efficacy (% Stimulation) MOR” value ([3]; Table 5) is reported as 90.7±3.6%, the Emax [3] is reported as 90.7% and the “Efficacy (% Stimulation) DOR” value ([4]; Table 5) is reported as 27.4±8.2%. For the same compound, the “Efficacy (% Stimulation) KOR” value ([5]; Table 5) was 22.0±3.8%.

Compound Cc1cc(O)cc(C)c1C[C@H](N)C(=O)NCCCCCN1CCc2ccccc2C1.O=C(O)C(F)(F)F [I, (S)-1-((5-(3,4-Dihydroisoquinolin-2(1H)-yl)pentyl)amino)-3-(4-hydroxy-2,6-dimethylphenyl)-1-oxopropan-2-aminium Trifluoroacetate] has a Ki [1] of 1.5 ± 0.3 nM, a Ki [6] of 44.2 ± 5.6 nM and an EC50 [3] of 15.4 ± 1.3 nM. For the same compound, the Emax [3] was 80.8 ± 4.5%, the “Efficacy (% Stimulation) DOR” value ([4]; Table 5) was “DNS” and the “Potency, EC50 KOR” value ([5]; Table 5) was “DNS”. The “Efficacy (% Stimulation) KOR” value ([5]; Table 5) was “DNS”.

With Cc1cc(O)cc(C)c1C[C@H](N)C(=O)NCCOCC(=O)N1CCc2ccccc2C1.O=C(O)C(F)(F)F [K, (S)-1-((2-(2-(3,4-Dihydroisoquinolin-2(1H)-yl)-2-oxoethoxy)-ethyl)amino)-3-(4-hydroxy-2,6-dimethylphenyl)-1-oxopropan-2-aminium Trifluoroacetate] the “Efficacy (% Stimulation) DOR” value ([4]; Table 5) was “DNS” and the “Efficacy (% Stimulation) KOR” value ([5]; Table 5) was “DNS”.

Cc1cc(O)cc(C)c1C[C@H](N)C(=O)NCc1cccc(CN2CCCCC2)c1.O=C(O)C(F)(F)F [A, (S)-3-(4-Hydroxy-2,6-dimethylphenyl)-1-oxo-1-((3-(piperidin-1-ylmethyl)benzyl)amino)propan-2-aminium Trifluoroacetate] was tested, and the Ki [1] was 9.3 ± 1.3 nM, the EC50 [3] was greater than 740 nM and the “Efficacy DOR, percent maximal stimulation” value [4] was “DNS”. The “Efficacy KOR, percent maximal stimulation” value [5] was “DNS”.
